# Source: patent publication US12624024B2, “EP2 antagonist compounds” (Reservoir Neuroscience, Inc., priority 2021, dated 2026)
# Target: T1, EP2 receptor (Homo sapiens, UniProt P43116)
# T1 construct: expressed in transfected cells; host or cells: CHO-K1 cells (ATCC), transient transfection with FuGENE 6
# Assay: EP2 Potency Assay (cAMP TR-FRET, CHO-K1 cells transfected with EP2 receptor, PGE2 at EC80)
# Assay type: cell-based
# Conditions: CHO-K1 cells expressing EP2, prostaglandin E2 at EC80, read-out: EP2 Potency (IC50 category)
# Experimental: Compound potency was measured using a cAMP TR-FRET assay.
# After 6 hours incubation, the cell media was replaced with F12 medium supplemented with 10% FBS and 100 U/ml Pen-Strep. 24 hours after transfection, cells were harvested and seeded at a density of 3000 cells/well in a 384 well plate to perform the cAMP assay, using the LANCE Ultra cAMP assay kit (PerkinElmer).
# Plates were then centrifuged at 1000 rpm for 1 min, agitated at 600 rpm at R.T. for 2 min, and incubated at 25° C. for 5 min. The reference agonist, prostaglandin E2 (MCE), was added to each well at the appropriate concentration to reach its EC80 value. Plates were then centrifuged at 1000 rpm for 1 min, agitated at 600 rpm at R.T. for 2 min, and incubated at 25° C. for 30 min.
# A dose-response curve was prepared by plotting percent inhibition for each compound concentration, and then IC50 was calculated by fitting a curve to the plotted values and extrapolating the IC50 concentration.
# T1 sequence (P43116 whole entry): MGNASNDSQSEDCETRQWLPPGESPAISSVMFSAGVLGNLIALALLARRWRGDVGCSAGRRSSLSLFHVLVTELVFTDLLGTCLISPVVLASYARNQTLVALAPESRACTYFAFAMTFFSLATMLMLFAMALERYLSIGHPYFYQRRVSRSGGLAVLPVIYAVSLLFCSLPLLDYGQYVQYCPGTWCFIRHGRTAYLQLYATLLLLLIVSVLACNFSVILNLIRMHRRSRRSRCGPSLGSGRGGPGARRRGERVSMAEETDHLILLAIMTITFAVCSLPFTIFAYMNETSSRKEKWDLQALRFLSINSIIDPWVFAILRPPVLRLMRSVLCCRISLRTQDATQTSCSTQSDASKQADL
row,IC50,Compound
1,> 5 µM,COc1ncc(CN2CCOc3c(Cl)cc(-c4cccc5c4OCCO5)cc3C2)cn1 [Compound 57]
2,1 to 5 µM,N#Cc1ccc2c(ccn2-c2cc(Cl)c3c(c2)CN(Cc2cnc(=O)[nH]c2)CCO3)c1 [Compound 59]
3,1 to 5 µM,O=c1ncc(CN2CCOc3c(Cl)cc(-n4ccc5cc(C(F)(F)F)ccc54)cc3C2)c[nH]1 [Compound 60]
4,> 5 µM,CN(C)c1ccc2c(ccn2-c2cc(Cl)c3c(c2)CN(Cc2cnc(=O)[nH]c2)CCO3)c1 [Compound 61]
5,0.1 to 0.5 µM,O=c1ncc(CN2CCOc3c(Cl)cc(-n4ccc5cc(Cl)ccc54)cc3C2)c[nH]1 [Compound 62]
6,< 0.1 µM,O=c1ncc(CN2CCOc3c(Cl)cc(-n4ccc5c(F)c(F)ccc54)cc3C2)c[nH]1 [Compound 64]
7,0.5 to 1 µM,O=c1ncc(CN2CCOc3c(Cl)cc(-n4ccc5c(F)c(Cl)ccc54)cc3C2)c[nH]1 [Compound 65]
8,1 to 5 µM,Cc1cc2cc(F)ccc2n1-c1cc(Cl)c2c(c1)CN(Cc1cnc(=O)[nH]c1)CCO2 [Compound 66]
9,0.1 to 0.5 µM,Cc1cn(-c2cc(Cl)c3c(c2)CN(Cc2cnc(=O)[nH]c2)CCO3)c2ccc(F)cc12 [Compound 67]
10,0.5 to 1 µM,O=c1ncc(CN2CCOc3c(Cl)cc(-n4ccc5ncccc54)cc3C2)c[nH]1 [Compound 68]
11,> 5 µM,O=c1ncc(CN2CCOc3c(Cl)cc(-n4ccc5cccnc54)cc3C2)c[nH]1 [Compound 69]
12,1 to 5 µM,"O=c1ncc(CN2CCOc3c(Cl)cc(-n4ccc5cc(F)cnc54)cc3C2)c[nH]1 [Compound 70, 5-((9-chloro-7-(5-fluoro-1H-pyrrolo[2,3-b]pyridin-1-yl)-2,3-dihydrobenzo[f][1,4]oxazepin-4(5H)-yl)methyl)pyrimidin-2(1H)-one]"
13,> 5 µM,O=c1ncc(CN2CCOc3c(Cl)cc(-n4ccc5ccncc54)cc3C2)c[nH]1 [Compound 71]
14,> 5 µM,O=c1ncc(CN2CCOc3c(Cl)cc(-n4ccc5cc(Cl)ncc54)cc3C2)c[nH]1 [Compound 72]
15,> 5 µM,O=c1ncc(CN2CCOc3c(Cl)cc(-n4ccc5cnccc54)cc3C2)c[nH]1 [Compound 73]
16,1 to 5 µM,O=c1ncc(CN2CCOc3c(Cl)cc(-c4cccc5nccn45)cc3C2)c[nH]1 [Compound 74]
17,0.5 to 1 µM,O=c1ncc(CN2CCOc3c(Cl)cc(-c4ncc5ccccn45)cc3C2)c[nH]1 [Compound 75]
18,> 5 µM,"O=c1ncc(CN2CCOc3c(Cl)cc(-n4ccc5nccnc54)cc3C2)c[nH]1 [Compound 76, 5-[(9-chloro-7-{pyrrolo[2,3-b]pyrazin-5-yl}-3,5-dihydro-2H-1,4-benzoxazepin-4-yl)methyl]-1H-pyrimidin-2-one trifluoroacetic acid]"
19,> 5 µM,O=c1ncc(CN2CCOc3c(Cl)cc(-n4ccc5cncnc54)cc3C2)c[nH]1 [Compound 77]
20,0.1 to 0.5 µM,O=c1ncc(CN2CCOc3c(Cl)cc(N4CCc5cc(F)ccc54)cc3C2)c[nH]1 [Compound 78]
21,0.1 to 0.5 µM,O=c1ncc(CN2CCOc3c(Cl)cc(N4CCc5cc(Cl)ccc54)cc3C2)c[nH]1 [Compound 79]
22,1 to 5 µM,O=c1ncc(CN2CCOc3c(Cl)cc(N4CCCc5cc(F)ccc54)cc3C2)c[nH]1 [Compound 80]
23,1 to 5 µM,O=c1ncc(CN2CCOc3c(Cl)cc(N4CCOc5cc(F)ccc54)cc3C2)c[nH]1 [Compound 81]
24,1 to 5 µM,O=c1ncc(CN2CCOc3c(Cl)cc(-c4cccc5ccccc45)cc3C2)c[nH]1 [Compound 82]
25,> 5 µM,O=c1ncc(CN2CCOc3c(Cl)cc(-c4cccc5c4CCCC5)cc3C2)c[nH]1 [Compound 83]

row,IC50,Compound
1,0.1 to 0.5 µM,O=c1ncc(CN2CCOc3c(Cl)cc(-c4coc5ccccc45)cc3C2)c[nH]1 [Compound 84]
2,> 5 µM,O=c1ncc(CN2CCOc3c(Cl)cc(-c4cccc5c4OCCO5)cc3C2)c[nH]1 [Compound 85]
3,> 5 µM,Fc1ccc2c(ccn2-c2cc(Cl)c3c(c2)CN(Cc2cc[nH]c2)CCO3)c1 [Compound 86]
4,> 5 µM,Fc1ccc2c(ccn2-c2cc(Cl)c3c(c2)CN(Cc2ccc[nH]2)CCO3)c1 [Compound 87]
5,> 5 µM,CC(C)(C)OC(=O)n1cccc1CN1CCOc2c(Cl)cc(-n3ccc4cc(F)ccc43)cc2C1 [Compound 88]
6,> 5 µM,Fc1ccc2c(ccn2-c2cc(Cl)c3c(c2)CN(Cc2ccco2)CCO3)c1 [Compound 89]
7,> 5 µM,Fc1ccc2c(ccn2-c2cc(Cl)c3c(c2)CN(Cc2ccoc2)CCO3)c1 [Compound 90]
8,> 5 µM,Fc1ccc2c(ccn2-c2cc(Cl)c3c(c2)CN(Cc2cccs2)CCO3)c1 [Compound 91]
9,> 5 µM,Fc1ccc2c(ccn2-c2cc(Cl)c3c(c2)CN(Cc2ccsc2)CCO3)c1 [Compound 92]
10,0.5 to 1 µM,"Fc1ccc2c(ccn2-c2cc(Cl)c3c(c2)CN(Cc2cnco2)CCO3)c1 [Compound 93, 9-chloro-7-(5-fluoro-1H-indol-1-yl)-4-(oxazol-5-ylmethyl)-2,3,4,5-tetrahydrobenzo[f][1,4]oxazepine]"
11,1 to 5 µM,Fc1ccc2c(ccn2-c2cc(Cl)c3c(c2)CN(Cc2ccno2)CCO3)c1 [Compound 94]
12,> 5 µM,Fc1ccc2c(ccn2-c2cc(Cl)c3c(c2)CN(Cc2cocn2)CCO3)c1 [Compound 95]
13,1 to 5 µM,Fc1ccc2c(ccn2-c2cc(Cl)c3c(c2)CN(Cc2cnsc2)CCO3)c1 [Compound 96]
14,> 5 µM,Fc1ccc2c(ccn2-c2cc(Cl)c3c(c2)CN(Cc2ccsn2)CCO3)c1 [Compound 97]
15,0.5 to 1 µM,Fc1ccc2c(ccn2-c2cc(Cl)c3c(c2)CN(Cc2cncs2)CCO3)c1 [Compound 99]
16,> 5 µM,"Fc1ccc2c(ccn2-c2cc(Cl)c3c(c2)CN(Cc2cscn2)CCO3)c1 [Compound 100, 9-chloro-7-(5-fluoroindol-1-yl)-4-(1,3-thiazol-4-ylmethyl)-3,5-dihydro-2H-1,4-benzoxazepine]"
17,> 5 µM,Fc1ccc2c(ccn2-c2cc(Cl)c3c(c2)CN(Cc2cc[nH]n2)CCO3)c1 [Compound 101]
18,> 5 µM,Cn1ccc(CN2CCOc3c(Cl)cc(-n4ccc5cc(F)ccc54)cc3C2)n1 [Compound 102]
19,1 to 5 µM,"Fc1ccc2c(ccn2-c2cc(Cl)c3c(c2)CN(Cc2cn[nH]c2)CCO3)c1 [Compound 103, 4-((1H-pyrazol-4-yl)methyl)-9-chloro-7-(5-fluoro-1H-indol-1-yl)-2,3,4,5-tetrahydrobenzo[f][1,4]oxazepane]"
20,> 5 µM,CC(C)(C)OC(=O)n1cc(CN2CCOc3c(Cl)cc(-n4ccc5cc(F)ccc54)cc3C2)cn1 [Compound 104]
21,> 5 µM,"COc1n[nH]cc1CN1CCOc2c(Cl)cc(-n3ccc4cc(F)ccc43)cc2C1 [Compound 105, 9-chloro-7-(5-fluoroindol-1-yl)-4-[(3-methoxy-1H-pyrazol-4-yl)methyl]-3,5-dihydro-2H-1,4-benzoxazepine]"
22,> 5 µM,Fc1ccc2c(ccn2-c2cc(Cl)c3c(c2)CN(Cc2cnc[nH]2)CCO3)c1 [Compound 107]
23,1 to 5 µM,"Fc1ccc2c(ccn2-c2cc(Cl)c3c(c2)CN(Cc2cn[nH]n2)CCO3)c1 [Compound 108, 9-chloro-7-(5-fluoroindol-1-yl)-4-(2H-1,2,3-triazol-4-ylmethyl)-3,5-dihydro-2H-1,4-benzoxazepine]"
24,> 5 µM,"Fc1ccc2c(ccn2-c2cc(Cl)c3c(c2)CN(Cc2nnc[nH]2)CCO3)c1 [Compound 109, 9-chloro-7-(5-fluoroindol-1-yl)-4-(4H-1,2,4-triazol-3-ylmethyl)-3,5-dihydro-2H-1,4-benzoxazepine]"
